In US20240180898A1, “USE OF AMINOTHIAZOLE DERIVATIVE IN TREATMENT OF IMMUNE INFLAMMATION” (INNAMUNE PHARMACEUTICAL CO. LTD., priority 2021, published 2024):

Assays:
[1] = test system: high-fat diet obese mice; experiment: high-fat diet obesity and fatty liver model; assay type: in vivo, mouse
Excerpt: Feed B6 mice with a high-fat diet (HFD) to create an obesity model. Divide the animals into three groups: normal diet group, high-fat diet group, and high-fat diet group with INNA1605 (TJ-M2010-5) added at the same time. Conduct three control groups to measure body weight, inguinal and epididymal fat size, liver size, and examine the liver and various adipose tissues of each group.

[2] = test system: dry eye disease model; experiment: experimental dry eye (EDE) model; assay type: in vivo, mouse; details: day 9, vs EDE group
Excerpt: Dry eye disease was induced by placing mice in a experimental dry eye (EDE) condition and administering scopolamine to maximize ocular surface dryness. Animals were divided into three groups: non-EDE group, EDE group and EDE+TJ-5 group. Mice were euthanized on day 9 for cellular and molecular analysis.

[3] = test system: IRI model of mouse liver; experiment: hepatic IRI model, western blotting of liver protein; details: in vivo
Excerpt: The IRI model of mouse liver was established. Animals were divided into three groups: Sham group, IRI group and IRI+TJ-5 group. Protein extracted from mouse liver was detected.

[4] = test system: APP/PS1 transgenic mice; experiment: Alzheimer's disease model, APP/PS1 transgenic mice; assay type: in vivo, mouse
Procedure: Preparation and grouping of Alzheimer's disease mouse models:
The experiment is divided into three groups, namely:
Drug group (APP/PS1+INNA1605 group): APP/PSI transgenic mice were given INNA1605 at a dose of 50 mg/Kg/day (twice a day, 25 mg/Kg each time, intraperitoneal injection once, gavage once);
Model group (APP/PSI group): APP/PSI transgenic mice were given an equal dose of solvent (ddH2O);
Control group: C57BL/6 mice were given an equal dose of solvent (ddH2O).
At 9 months of age, Morris water maze test was conducted to evaluate the spatial learning and memory abilities of APP/PSI mice. After the behavioral experiment was completed, pentobarbital sodium (100 mg/kg) was injected into the abdominal cavity for deep anesthesia. After fully exposing the heart and aorta through thoracotomy, a 20 ml syringe was inserted into the aorta with an infusion needle from the apex of the heart. The needle was fixed and the right atrium was cut open. 30 ml of physiological saline at 4° C. was perfused through the aorta until most of the blood flowed out. The hippocampus and cortical tissue were carefully and quickly separated and stored at −80° C.for subsequent biochemical analysis. The remaining mice were first perfused with 30 ml of 4° C. physiological saline, followed by 30 ml of pre-cooled 4% paraformaldehyde. Then, the whole brain was removed and fixed with 4% paraformaldehyde for another 48 hours. After dehydration, transparency, paraffin embedding, and sectioning, immunohistochemical analysis was performed.

[5] = test system: mouse eczema model; experiment: mouse atopic dermatitis/eczema model; assay type: in vivo
Procedure: Preparation and grouping of mouse […] model:
Model preparation: Male C57 mice aged 6-8 weeks were treated with 2% M7309 (carboplatin) ointment on their ears once a day for 10 consecutive days.
The experiment was divided into three groups, namely: • Eczema control group (without any treatment, eczema model group), TJ-M2010-5 systemic medication group (intraperitoneal injection), and TJ-M2010-5 local medication group (ointment group). The specific handling method is as follows: • TJ-M2010-5 systemic medication group: A mouse eczema model was taken and TJ-M2010-5 was injected intraperitoneally at a dose of 50 mg/kg, once a day, for 2 consecutive weeks. • TJ-M2010-5 local medication group: Take a mouse eczema model, apply 1% TJ-M2010-5 ointment on the skin, once a day, for 2 consecutive weeks.

[6] = test system: bone marrow derived macrophages; experiment: bone marrow derived macrophage pyroptosis model (LPS + ATP); assay type: cell-based
Procedure: Preparation and grouping of bone marrow derived macrophage pyroptosis model:
Model preparation: After LPS (500 ng/ml) stimulation of bone marrow derived macrophages for 6 hours, ATP (5 mmol/L) stimulation for 2 hours, followed by cell collection and supernatant detection.
The experiment was divided into four groups, namely: • Control group (normal cell culture medium), • Model group (with LPS and ATP stimulation added to the culture medium), • TJ-5 (10 μmol/L) group (2 hours before LPS stimulation, administer 10 μmol/L TJ-5 drug stimulation), • TJ-5 (30 μmol/L) group (2 hours before LPS stimulation, administer 30 μmol/L TJ-5 drug stimulation).
Collect cells and their supernatant for detection at the endpoint of the experiment.

[7] = preclinical safety assessment, intravenous injection; assay type: in vivo
Procedure: Direct intravenous injection of 30 mg/kg or more will cause elevated liver enzyme toxicity, and it has no toxic effect at 10 mg/kg.

[8] = test system: macrophages derived from mouse bone marrow; experiment: LPS-induced secretion of inflammatory factors from macrophages, ELISA of supernatant; assay type: cell-based; details: 30 umol/L 2 hours before LPS 500 ng/ml for 24 hours; FIG. 2
Procedure: macrophage grouping (in vitro):
Cultivate macrophages derived from mouse bone marrow in vitro.
The experiment was divided into 8 groups, namely: • Control group (untreated mouse bone marrow-derived macrophages), • LPS group (500 ng/ml LPS stimulated macrophages for 24 hours), • LPS+TJ-2 group (2 hours before LPS stimulation, administer 30 umol/L TJ-2 drug stimulation), • LPS+TJ-5 group (2 hours before LPS stimulation, administer 30 umol/L TJ-5 drug stimulation), • LPS+TJ-8 group (2 hours before LPS stimulation, administer 30 umol/L TJ-8 drug stimulation), • LPS+TJ-9 group (2 hours before LPS stimulation, administer 30 umol/L TJ-9 drug stimulation), • LPS+TJ-11 group (2 hours before LPS stimulation, administer 30 umol/L TJ-11 drug stimulation), • and LPS+TJ-12 group (2 hours before LPS stimulation, administer 30 umol/L TJ-12 drug stimulation).
After 24 hours of LPS stimulation, the cell culture supernatant was removed and ELISA was performed to detect the concentration of various inflammatory factors in the supernatant.

[9] = immunohistochemistry, vs model group
[10] = TJ-5 10 or 30 μmol/L before LPS + ATP

O=C(CCN1CCN(Cc2ccccc2)CC1)Nc1nc(-c2ccccc2)cs1 [INNA1605, 3-(4-benzylpiperazine-1-yl)-N-(4-phenylthiazole-2-yl) propionamide]
adipose tissue, liver, and body weight ([1]; B6 mice, added with high-fat diet, FIG. 37): significantly smaller than those of the obese group and close to those of normal mice
weight of obese mice fed with high-fat diet ([1]; FIG. 25): significantly reduced the weight of high-fat diet obese mice
lipid droplets in the adipose tissue and liver ([1]; pathological examination, FIG. 38): significantly smaller than those of the obese group, and were similar to normal mice
corneal fluorescein staining score [2]: significantly lower corneal fluorescein staining score
expression of IL-1β, TNF-α, MCP-1 and IL-6 in corneal tissues [2]: reduced expression
GSDMD cleavage in liver [3]: effectively inhibited GSDMD cleavage
NLRP3, cleavage of caspase-1 (upregulated) and pro-caspase-1 (downregulated) following IRI [3]: this trend was reversed
cleavage of caspase-11 [3]: effectively inhibited cleavage of caspase-11
memory (Morris water maze) ([4]; 50 mg/Kg/day, 9 months of age): better memory than APP/PS1 transgenic mice treated with only ddH2O
Iba-1 positive microglia (whole brain, cortex, hippocampus) [4, 9]: significantly reduced compared to the model group
brain Aβ deposition (whole brain, cortex, hippocampus) [4, 9]: significantly less
therapeutic effect, local medication ([5]; 1% ointment once a day, 2 weeks): excellent therapeutic effects
abnormally thickened stratum corneum ([5]; after treatment): can basically restore normal tissue structure
inflammation ([5]; after treatment): significantly reduced
various inflammatory factors in the skin ([5]; mouse, in vivo): decreased
apoptosis (PI+ cells) of bone marrow derived macrophages ([6]; TJ-5 10 or 30 μmol/L 2 hours before LPS 500 ng/ml 6 hours + ATP 5 mmol/L 2 hours): can inhibit the apoptosis of bone marrow derived macrophages induced by LPS and ATP
activation and cleavage of GSDMD [6, 10]: significantly inhibits the activation and cleavage of GSDMD
assembly and activation of NLRP3 inflammasomes [6, 10]: can block the assembly and activation of NLRP3 inflammasomes
classical and non classical cell pyroptosis pathways [6, 10]: inhibit both classical and non classical cell pyroptosis pathways
maturation and release of Pro-IL-1b and Pro-IL-18 [6, 10]: inhibiting the maturation and release
secretion of LDH in cell culture supernatant [6, 10]: reduce the secretion of LDH
secretion of various inflammatory factors [6, 10]: reducing the secretion of various inflammatory factors
dose causing elevated liver enzyme toxicity ([7]; direct intravenous injection): ≥ 30 mg/kg
dose with no toxic effect ([7]; direct intravenous injection): 10 mg/kg
toxicity to the body ([7]; preclinical trial results): low toxicity to the body
inhibitory effect on inflammatory factors compared among the compounds [8]: have the same inhibitory effect on inflammatory factors
secretion of various inflammatory factors in macrophages (IL-1β, Il-6, TNF-α, IL-18, IL-17) [8]: can inhibit the secretion of various inflammatory factors in macrophages
